System: Phosphorylation of STAT6 in human PBMC (CD19+ B cells)
Assay: Phosphorylated STAT6 (pSTAT6) flow cytometry assay in human PBMC, IL-4 stimulated
Assay type: cell-based
Conditions: compound 1 hour, 1 ng/ml IL-4 for 15 minutes, read-out: STAT6 IL4 pSTAT6 assay in PBMC: Average IC50
Experimental: Example 2. Phosphorylated STAT6 (pSTAT6) Flow Cytometry Assay in Human PBMC
Phosphorylation of STAT6 in human PBMC was quantitatively measured using flow cytometry technology. Human PBMC were seeded in 96-well plates with a density of 0.3 to 0.5 million cells per well in 100 μl fresh media. Compounds were then added to the assay plates with a final top concentration of up to 30 μM in a 1:3 dilution series with total of 9 doses. The assay plates were incubated for 1 hour at 37° C. under 5% CO2. The cells were then stimulated with 1 ng/ml of IL-4 (R&D Systems, Cat #6507-IL) for 15 minutes, followed by fixation for 30 minutes at 4° C. Cells were spun down at 350 g for 5 minutes. The supernatant was removed and cells were washed once with FACS buffer. Cells were permeabilized with 90% MeOH/H2O for 30 minutes at 4° C., followed by one wash with FACS buffer. Non-specific binding were blocked with human Fc for 1 hour at 4 C, followed by one wash with FACS buffer. AF488 conjugated pSTAT6 antibody (BD Biosciences, Cat #612600, 1:100 dilution) and PE conjugated CD19 antibody (BD Biosciences, Cat #341103, 1:50 dilution) diluted in 100 μl FACS buffer was added to each well with overnight incubation at 4° C. Cells were then washed once with FACS buffer and resuspended in 200 μl of FACS buffer for flow cytometry to quantify pSTAT6 in CD19+ B cells. The data was analyzed by GraphPad Prism and the dose dependent pSTAT6 inhibition was fit using the four-parameter inhibitor vs. response nonlinear regression.

`CN(C)C(=O)c1cc2ccc(C3=CCCN(C(=O)CCc4ccn(C)n4)C3)cc2[nH]1` [Example I-10] showed an IC50 of over 100 µM.

In the case of `CN(C)C(=O)c1cc2ccc(C3=CCCN(C(=O)[C@@H]4C[C@H]4c4ccn(C)n4)C3)cc2[nH]1` [Example I-11], the IC50 is reported as 10 to 100 µM.

Molecule `Cc1cnnn1CCC(=O)N1CCC=C(c2ccc3cc(C(=O)N(C)C)[nH]c3c2)C1` [Example I-12] has an IC50 of 10 to 100 µM.

With `CN(C)C(=O)c1cc2ccc(C3=CCCN(C(=O)CCn4nncc4CO)C3)cc2[nH]1` [Example I-13] the IC50 was 0.1 to 1 µM.

In the case of `CN(C)C(=O)c1cc2ccc(C3=CCCN(C(=O)CCc4nn[nH]n4)C3)cc2[nH]1` [Example I-15], the IC50 is reported as 10 to 100 µM.

`CN(C)C(=O)c1cc2ccc(C3=CCCN(S(=O)(=O)Cc4cccnn4)C3)cc2[nH]1` [Example I-16] gave an IC50 of over 100 µM.

Work on `CN(C)C(=O)c1cc2ccc(C3=CCCN(C(=O)CCc4nnco4)C3)cc2[nH]1` [Example I-18] yielded an IC50 of over 100 µM.

With `CN(C)C(=O)c1cc2ccc(C3=CCCN(C(=O)CCc4ccno4)C3)cc2[nH]1` [Example I-19] the IC50 was over 100 µM.

`CN(C)C(=O)c1cc2ccc(C3=CCCN(C(=O)CCc4ccon4)C3)cc2[nH]1` [Example I-20] showed an IC50 of over 100 µM.

`CN(C)C(=O)c1cc2ccc(C3=CCCN(C(=O)CCc4nnc[nH]4)C3)cc2[nH]1` [Example I-21] gave an IC50 of over 100 µM.

`CN(C)C(=O)c1cc2c(-c3ccc(O)cc3)cc(C3=CCCN(C(=O)CCn4ccnn4)C3)cc2[nH]1` [Example I-22] gave an IC50 of 0.1 to 1 µM.

`C#Cc1cc(C2=CCCN(C(=O)CCn3ccnn3)C2)cc2cc(C(=O)N(C)C)oc12` [Example I-23] was tested, and the IC50 was over 100 µM.

Work on `C[C@@H](O)C(=O)N1CCC=C(c2ccc3cc(C(=O)N(C)C)[nH]c3c2)C1` [Example I-24] yielded an IC50 of 10 to 100 µM.

`CN(C)C(=O)c1cc2ccc(C3=CCCN(C(=O)C4CC4F)C3)cc2[nH]1` (stereo not shown) [Example I-25] gave an IC50 of over 100 µM.

With `CN(C)C(=O)c1cc2ccc(C3=CCCN(C(=O)C4CC4F)C3)cc2[nH]1` (stereo not shown) [Example I-26] the IC50 was over 100 µM.

In the case of `CN(C)C(=O)c1cc2ccc(C3=CCCN(C(=O)C4(O)CC4)C3)cc2[nH]1` [Example I-27], the IC50 is reported as over 100 µM.

`CN(C)C(=O)c1cc2ccc(C3=CCCN(C(=O)C4CC(O)C4)C3)cc2[nH]1` (stereo not shown) [Example I-28] showed an IC50 of 10 to 100 µM.

Molecule `CN(C)C(=O)c1cc2ccc(C3=CCCN(C(=O)C4(C#N)CC4)C3)cc2[nH]1` [Example I-29] has an IC50 of 10 to 100 µM.

Molecule `CN(C)C(=O)c1cc2ccc(C3=CCCN(C(=O)C4CC(=O)N4)C3)cc2[nH]1` (stereo not shown) [Example I-30] has an IC50 of 10 to 100 µM.

For `CN(C)C(=O)c1cc2ccc(C3=CCCN(C(=O)C4(O)CCCC4)C3)cc2[nH]1` [Example I-32], the IC50 was 10 to 100 µM.

`CN(C)C(=O)c1cc2ccc(C3=CCCN(C(=O)c4n[nH]cc4I)C3)cc2[nH]1` [Example I-33] showed an IC50 of 10 to 100 µM.

`CN(C)C(=O)c1cc2ccc(C3=CCCN(C(=O)c4c[nH]nc4I)C3)cc2[nH]1` [Example I-34] was tested, and the IC50 was 10 to 100 µM.

In the case of `Cc1nocc1C(=O)N1CCC=C(c2ccc3cc(C(=O)N(C)C)[nH]c3c2)C1` [Example I-35], the IC50 is reported as 10 to 100 µM.

`CN(C)C(=O)c1cc2ccc(C3=CCCN(C(=O)Cn4cncn4)C3)cc2[nH]1` [Example I-36] showed an IC50 of 10 to 100 µM.

With `CN(C)C(=O)c1cc2ccc(C3=CCCN(C(=O)Cn4ccnn4)C3)cc2[nH]1` [Example I-37] the IC50 was 10 to 100 µM.

`CN(C)C(=O)c1cc2ccc(C3=CCCN(C(=O)Cc4c[nH]nn4)C3)cc2[nH]1` [Example I-38] showed an IC50 of over 100 µM.

Molecule `CN(C)C(=O)c1cc2ccc(C3=CCCN(C(=O)C4CCC4C(=O)O)C3)cc2[nH]1` (stereo not shown) [Example I-39] has an IC50 of 10 to 100 µM.

`CN(C)C(=O)c1cc2ccc(C3=CCCN(C(=O)C4CCCS4(=O)=O)C3)cc2[nH]1` (stereo not shown) [Example I-40] was tested, and the IC50 was 10 to 100 µM.

`Cc1nc(CC(=O)N2CCC=C(c3ccc4cc(C(=O)N(C)C)[nH]c4c3)C2)no1` [Example I-41] was tested, and the IC50 was 10 to 100 µM.

For `CN(C)C(=O)c1cc2ccc(C3=CCCN(C(=O)CN4CCOC4=O)C3)cc2[nH]1` [Example I-42], the IC50 was 10 to 100 µM.

`CN(C)C(=O)c1cc2ccc(C3=CCCN(C(=O)c4nonc4C4CC4)C3)cc2[nH]1` [Example I-44] was tested, and the IC50 was 10 to 100 µM.

Work on `CN(C)C(=O)c1cc2ccc(C3=CCCN(C(=O)c4cn(C5CC5)nn4)C3)cc2[nH]1` [Example I-45] yielded an IC50 of 10 to 100 µM.

`CN(C)C(=O)c1cc2ccc(C3=CCCN(C(=O)CC(C)(O)C(F)(F)F)C3)cc2[nH]1` (stereo not shown) [Example I-46] was tested, and the IC50 was 10 to 100 µM.

`CN(C)C(=O)c1cc2ccc(C3=CCCN(C(=O)c4ccc(O)c(F)c4)C3)cc2[nH]1` [Example I-48] was tested, and the IC50 was 10 to 100 µM.

Work on `CC(=O)c1cc(C(=O)N2CCC=C(c3ccc4cc(C(=O)N(C)C)[nH]c4c3)C2)n[nH]1` [Example I-49] yielded an IC50 of 10 to 100 µM.

For `CO[C@@H](C(=O)N1CCC=C(c2ccc3cc(C(=O)N(C)C)[nH]c3c2)C1)c1ccccc1` [Example I-50], the IC50 was 10 to 100 µM.

`CN(C)C(=O)c1cc2ccc(C3=CCCN(C(=O)C(O)Cc4ccccc4)C3)cc2[nH]1` (stereo not shown) [Example I-51] showed an IC50 of 10 to 100 µM.

For `CN(C)C(=O)c1cc2ccc(C3=CCCN(C(=O)C(O)Cc4ccccc4)C3)cc2[nH]1` (stereo not shown) [Example I-52], the IC50 was 10 to 100 µM.

`CC(C(=O)N1CCC=C(c2ccc3cc(C(=O)N(C)C)[nH]c3c2)C1)n1ccccc1=O` (stereo not shown) [Example I-53] was tested, and the IC50 was 1 to 10 µM.

Molecule `CC(Oc1ccccn1)C(=O)N1CCC=C(c2ccc3cc(C(=O)N(C)C)[nH]c3c2)C1` (stereo not shown) [Example I-54] has an IC50 of 10 to 100 µM.

Molecule `CN(C)C(=O)c1cc2ccc(C3=CCCN(C(=O)C45CC(C(F)(F)F)(C4)C5)C3)cc2[nH]1` [Example I-55] has an IC50 of 10 to 100 µM.

With `CN(C)C(=O)c1cc2ccc(C3=CCCN(C(=O)[C@@H]4C[C@H]4c4ccc(Br)cc4)C3)cc2[nH]1` [Example I-56] the IC50 was 10 to 100 µM.

`CN(C)C(=O)c1cc2ccc(C3=CCCN(C(=O)c4[nH]nc5c4CS(=O)(=O)C5)C3)cc2[nH]1` [Example I-57] showed an IC50 of 10 to 100 µM.

With `CN(C)C(=O)c1cc2ccc(C3=CCCN(C(=O)c4ccc5c(n4)OCCO5)C3)cc2[nH]1` [Example I-58] the IC50 was over 100 µM.

In the case of `CN(C)C(=O)c1cc2ccc(C3=CCCN(C(=O)[C@H]4Cc5ccccc5CN4)C3)cc2[nH]1` [Example I-59], the IC50 is reported as 1 to 10 µM.

`CN(C)C(=O)c1cc2ccc(C3=CCCN(C(=O)C4NCCc5ccccc54)C3)cc2[nH]1` (stereo not shown) [Example I-60] showed an IC50 of over 100 µM.

With `CN(C)C(=O)c1cc2ccc(C3=CCCN(C(=O)c4c(F)cccc4C(=O)O)C3)cc2[nH]1` [Example I-61] the IC50 was over 100 µM.

For `CN(C)C(=O)c1cc2ccc(C3=CCCN(C(=O)c4cnn(C)c4C(F)(F)F)C3)cc2[nH]1` [Example I-62], the IC50 was 10 to 100 µM.

`CN(C)C(=O)c1cc2ccc(C3=CCCN(C(=O)CCc4cccc(C#N)c4)C3)cc2[nH]1` [Example I-63] showed an IC50 of over 100 µM.

`CN(C)C(=O)c1cc2ccc(C3=CCCN(C(=O)CCc4ccccc4C#N)C3)cc2[nH]1` [Example I-64] showed an IC50 of over 100 µM.

For `CN(C)C(=O)c1cc2ccc(C3=CCCN(C(=O)[C@@H](N)Cc4cccc(F)c4)C3)cc2[nH]1` [Example I-65], the IC50 was over 100 µM.

For `CN(C)C(=O)c1cc2ccc(C3=CCCN(C(=O)CCS(=O)(=O)c4ccccc4)C3)cc2[nH]1` [Example I-66], the IC50 was 1 to 10 µM.

`CN(C)C(=O)c1cc2ccc(C3=CCCN(C(=O)COc4ccc(C(=O)O)cc4)C3)cc2[nH]1` [Example I-67] showed an IC50 of 10 to 100 µM.

`COC(=O)c1ccc(CCC(=O)N2CCC=C(c3ccc4cc(C(=O)N(C)C)[nH]c4c3)C2)[nH]1` [Example I-68] showed an IC50 of 10 to 100 µM.

With `CN(C)C(=O)c1cc2ccc(C3=CCCN(C(=O)c4cccnc4CS(C)(=O)=O)C3)cc2[nH]1` [Example I-69] the IC50 was over 100 µM.
